Reference: patent US10058608B2, “Compositions of vaccines and adjuvants and methods for the treatment of urinary tract infections” (priority 2013, dated 2018)

Assay: Forced degradation studies by TOF-MS
Format: physicochemical
Settings: 0.5 mg/ml in potassium citrate, pH 8.1, 37° C.
Experimental: 0.5 mg/ml of PHAD was prepared in potassium citrate, pH 8.1 and stored at 37° C. pH 8.1 is outside the preferred ranges of the invention and induces degradation. Samples were prepared for analysis by the addition of 200 μL of CHCl3, 200 μL of methanol, and 100 μL of ammonium acetate in 80:20 methanol/water. After mixing the bottom layer was transferred and diluted with 100 μL of methanol. Samples were analyzed by electrospray time-of-flight (TOF) mass spectrometry (MS) in negative mode via direct infusion. […] In addition, those skilled in the art understand that various adduct ions may occur during each analysis from day to day. Therefore, molecular formulas are based upon the ions observed considering error of the system day to day. […] By Days 1, 7, 13, and 20 significant ions appear at 1309 and 1519 and continue to increase from Day 1 to Day 20. The MS ion at 1309 represents a loss of two acyl groups (molecular formula is C28H53O3; 437 Daltons) and the MS ion at 1519 represents a loss of a single acyl group (molecular formula is C14H27O2; 227 Daltons) from the diglucosamine scaffold. By Day 7, the mass intensity of the 1519 ion had increased to 46% of the mass intensity of the 1745 mass ion. On Day 0 the mass intensity of the 1519 ion was 4% of that of the 1745 mass ion.
0.5 mg/ml of 3-deacyl-phosphorylated hexaacyl disaccharide was prepared in potassium citrate, pH 8.1 and stored at 37° C. All preparation and analysis were conducted as listed in experiment 1. […] By Days 1, 13, and 22 a significant ion appeared at 1084 and continued to increase from Day 1 to Day 22. The MS ion at 1084 represents a loss of two acyl groups (molecular formula is C28H53O3; 437 Daltons) from the diglucosamine scaffold. By Day 13 the intensity of the 1084 mass ion had increased to 24% of the intensity of the 1521 mass ion. On Day 0 the intensity of the 1084 mass ion was 3% of the intensity of the 1521 mass ion. […] Phosphorylated hexaacyl disaccharide and 3-deacyl phosphorylated hexaacyl disaccharide primarily degrade by losing acyl groups. The formulations of the invention prevent the loss of these acyl groups.
Because it was both pure and abundant, the pentaacyl MLA component was chosen for examination of its degradation mechanism. […] The degradation experiment was conducted in PBS, pH 7.4 and stored at 37° C. This saline buffer system was selected because the use of saline is outside the preferred embodiments of the invention.

Substance | intensity of the 1084 mass ion relative to the 1521 mass ion (Day 0) [%] | intensity of the 1084 mass ion relative to the 1521 mass ion (Day 13) [%] | mass intensity of the 1519 ion relative to the 1745 mass ion (Day 0) [%] | mass intensity of the 1519 ion relative to the 1745 mass ion (Day 7) [%]
3-deacyl-phosphorylated hexaacyl disaccharide | 3 | 24 |  | 
phosphorylated hexaacyl disaccharide [PHAD] |  |  | 4 | 46
